Counter-ions that a name gives are not always drawn.
Molecular target: T1, H+,K+-ATPase (Sus scrofa, UniProt P19156)
T1 construct: a microsomal fraction of gastric mucosa was prepared from the stomach of swine; from tissue; host or cells: swine stomach, gastric mucosa microsomal fraction
Assay: Proton Potassium-Adenosine Triphosphatase (H+,K+-ATPase) inhibitory activity test
Assay type: biochemical
Conditions: microsomal fraction of swine gastric mucosa; pH 6.5, 37° C., 10 mmol/L potassium chloride; malachite green colorimetry at 610 nm
Method: Proton Potassium-Adenosine Triphosphatase (H^+,K^+-ATPase) Inhibitory Activity Test
According to the method of Wallmark et al. [Biochim. Biophys. Acta, 728, 31 (1983)], a microsomal fraction of gastric mucosa was prepared from the stomach of swine. First, the stomach was removed, washed with tap water, and immersed in 3 mol/L sodium chloride, and the surface of the mucosa was wiped with a paper towel. The gastric mucosa was removed, minced, and homogenized in a 0.25 mol/L sucrose solution (pH 6.8) containing 1 mmol/L EDTA and 10 mmol/L tris-hydrochloric acid using polytron (Kinematica). The obtained homogenate was centrifuged at 20,000×g for 30 min and the supernatant was centrifuged at 100,000×g for 90 min. The precipitate was suspended in 0.25 mol/L sucrose solution, the suspension was superimposed on a 0.25 mol/L sucrose solution containing 7.5% Ficoll, and centrifuged at 100,000×g for 5 hr. The fraction containing the interface between the both layers was recovered, and centrifugally washed with 0.25 mol/L sucrose solution.
The obtained microsomal fraction was used as an H^+/K^+-ATPase preparation.
To 50 mmol/L HEPES-tris buffer (5 mmol/L magnesium chloride, 10 mmol/L potassium chloride, 10 μmol/L valinomycin, pH=6.5, 40 μL) containing 2.5 μg/mL enzyme preparation based on the protein concentration was added a test compound (5 μL) dissolved in 10% dimethyl sulfoxide solution, and the mixture was incubated at 37° C. for 30 min. A 2 mmol/L adenosine triphosphate tris salt solution (50 mmol/L HEPES-tris buffer (5 mmol/L magnesium chloride, pH 6.5), 5 μL) was added to start an enzyme reaction. The enzyme reaction was performed at 37° C. for 20 min, and then a malachite green solution (a mixture of 0.12% malachite green sulfate (2.5 mol/L) solution, 7.5% ammonium molybdate and 11% Tween 20 at a ratio of 100:25:2, 15 μL) was added to stop the reaction. The reaction mixture was stood at room temperature for 15 min, and the resulting reaction product of inorganic phosphorus and malachite green was measured by colorimetric quantification at a wavelength of 610 nm. In addition, the amount of inorganic phosphoric acid in a reaction solution free of potassium chloride was also measured in the same manner, and the value was extracted from that in the presence of potassium chloride, whereby the H^+,K^+-ATPase activity was measured. The inhibitory rate (%) was determined from the activity value of the control and that at each concentration of the test compound, and 50% inhibitory concentration (IC50) to H^+,K^+-ATPase was determined.

T1 sequence (P19156 2-1034 limits assumed): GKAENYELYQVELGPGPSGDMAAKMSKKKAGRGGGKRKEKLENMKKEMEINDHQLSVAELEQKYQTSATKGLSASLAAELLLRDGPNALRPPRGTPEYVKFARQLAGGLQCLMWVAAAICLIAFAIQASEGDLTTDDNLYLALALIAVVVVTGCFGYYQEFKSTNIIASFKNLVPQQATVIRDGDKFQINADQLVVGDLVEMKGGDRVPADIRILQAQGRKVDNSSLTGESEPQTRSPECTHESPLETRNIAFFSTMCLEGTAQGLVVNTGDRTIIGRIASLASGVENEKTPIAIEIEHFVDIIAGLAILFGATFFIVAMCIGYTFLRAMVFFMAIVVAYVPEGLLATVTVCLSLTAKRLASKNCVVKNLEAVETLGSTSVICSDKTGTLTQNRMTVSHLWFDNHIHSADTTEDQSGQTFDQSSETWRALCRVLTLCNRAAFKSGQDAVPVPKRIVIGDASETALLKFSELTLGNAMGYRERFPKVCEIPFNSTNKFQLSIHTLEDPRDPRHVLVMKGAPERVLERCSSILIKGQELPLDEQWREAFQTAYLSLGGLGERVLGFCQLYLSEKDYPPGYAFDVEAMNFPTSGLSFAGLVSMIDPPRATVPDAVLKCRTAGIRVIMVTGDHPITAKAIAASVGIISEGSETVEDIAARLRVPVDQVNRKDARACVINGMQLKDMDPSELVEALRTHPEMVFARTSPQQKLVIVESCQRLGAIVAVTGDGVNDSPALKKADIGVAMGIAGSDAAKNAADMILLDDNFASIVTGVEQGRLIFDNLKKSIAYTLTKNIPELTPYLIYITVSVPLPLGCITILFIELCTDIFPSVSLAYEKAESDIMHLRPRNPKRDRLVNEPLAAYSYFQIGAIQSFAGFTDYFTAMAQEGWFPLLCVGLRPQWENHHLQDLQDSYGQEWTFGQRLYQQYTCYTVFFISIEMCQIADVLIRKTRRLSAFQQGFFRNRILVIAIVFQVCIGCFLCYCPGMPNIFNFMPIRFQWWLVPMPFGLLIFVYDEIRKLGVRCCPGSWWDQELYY
T1 sequence (P18434 whole entry partner): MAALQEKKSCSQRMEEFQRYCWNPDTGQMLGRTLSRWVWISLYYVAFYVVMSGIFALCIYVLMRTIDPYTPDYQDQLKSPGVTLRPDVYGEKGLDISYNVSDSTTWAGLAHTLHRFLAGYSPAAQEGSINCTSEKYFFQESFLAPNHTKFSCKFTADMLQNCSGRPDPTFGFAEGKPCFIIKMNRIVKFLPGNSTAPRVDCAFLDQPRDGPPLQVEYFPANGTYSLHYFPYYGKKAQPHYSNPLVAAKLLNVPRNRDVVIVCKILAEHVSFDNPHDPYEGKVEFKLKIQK

| SMILES | IC50 |
| --- | --- |
| CNCc1cc(-c2cccnc2F)c(Sc2nccs2)s1 [Example 18, 1-{4-(2-fluoropyridin-3-yl)-5-[(1,3-thiazol-2-yl)thio]thiophen-2-yl}-N-methylmethanamine fumarate] | 2200 nM |
| CNCc1cc(-c2ccccc2F)c([S+]([O-])c2cccc(OC)c2)s1 (stereo not shown) [Example 11, 1-{4-(2-fluorophenyl)-5-[(3-methoxyphenyl)sulfinyl]-2-thienyl}-N-methylmethanamine fumarate] | 400 nM |
| CNCc1cc(-c2ccccc2F)c(Sc2cccc(OC)c2)s1 [Example 10, 1-{4-(2-fluorophenyl)-5-[(3-methoxyphenyl)thio]-2-thienyl}-N-methylmethanamine fumarate] | 170 nM |
| CNCc1cc(-c2cccnc2F)c(Sc2ccoc2C)s1 [Example 19, 1-{4-(2-fluoropyridin-3-yl)-5-[(2-methylfuran-3-yl)thio]thiophen-2-yl}-N-methylmethanamine hydrochloride] | 220 nM |
| CNCc1nc(-c2ccccc2)n(Cc2ccc(F)cc2)c1Cl [Example 6, 1-[5-chloro-1-(4-fluorobenzyl)-2-phenyl-1H-imidazol-4-yl]-N-methylmethanamine oxalate] | 1400 nM |
| CNCc1cn(Cc2ccc(F)cc2)c(-c2ccccc2)n1 [Example 3, 1-[1-(4-fluorobenzyl)-2-phenyl-1H-imidazol-4-yl]-N-methylmethanamine dihydrochloride] | 309000 nM |
| CNCc1cc(Sc2ccc(Cl)nc2)n(-c2ccccc2Cl)n1 [Example 27, 1-{1-(2-chlorophenyl)-5-[(6-chloropyridin-3-yl)thio]-1H-pyrazol-3-yl}-N-methylmethanamine hydrochloride] | 31 nM |

From patent publication US8334301B2, “5-Membered heterocyclic compound” (Takeda Pharmaceutical Company Limited, priority 2007, dated 2012)
